Results: the SangsterLogP compilation

Assay: method code SF-AS, from DOI: 10.1002/jps.2600800814, PMID: 1791539

Row | SMILES | logP
1 | COc1cncc(OC)n1 | 1.58
2 | Cc1cnc(C#N)cn1 | 0.26
3 | COC(=O)c1cncc(Cl)n1 | 0.47
4 | CCOc1cncc(Cl)n1 | 2.22
5 | CCCc1nccnc1C | 1.57
6 | COc1cncc(C#N)n1 | 0.95
7 | CC(=O)Nc1cncc(Cl)n1 | 1.1
8 | NC(=O)c1cncc(Cl)n1 | 0.28
9 | Cc1cnc(Cl)cn1 | 1.08
10 | CC(=O)Nc1cncc(C)n1 | 0.38
11 | COc1cncc(N(C)C)n1 | 1.99
12 | CCOc1cncc(OC)n1 | 1.98
13 | N#Cc1cncc(Cl)n1 | 0.79
14 | CCOc1cncc(OCC)n1 | 2.55
15 | Cc1cnc(C)c(C)n1 | 0.95
16 | COC(=O)c1nccnc1C(=O)OC | -0.02
17 | Nc1cncc(N)n1 | -0.45
18 | Fc1cncc(Cl)n1 | 1.15
19 | CCCOc1cncc(Cl)n1 | 2.71
20 | Cc1cncc(C)n1 | 0.54
21 | Cc1cnc(C)c(Cl)n1 | 1.5
22 | Nc1cncc(Cl)n1 | 0.95
23 | COc1cncc(Cl)n1 | 1.65
24 | COC(=O)c1cnc(C)cn1 | 0.17
25 | CCc1nc(C#N)c(C#N)nc1Cl | 1.79

Row | SMILES | logP
26 | CCCCc1nc(C#N)c(C#N)nc1C | 2.3
27 | CCc1nccnc1CC | 1.51
28 | CN(C)c1cnc(Cl)cn1 | 1.7
29 | CCCCc1nc(C#N)c(C#N)nc1Cl | 2.89
30 | COc1cnc(N)cn1 | 0.63
31 | CCOC(=O)c1cnc(C)cn1 | 0.61
32 | Cc1nc(C#N)c(C#N)nc1Cl | 1.29
33 | CCc1nccnc1OC | 1.8
34 | COC(=O)c1cncc(C)n1 | 0.1
35 | COc1nccnc1C | 1.24
36 | Clc1cnc(Cl)cn1 | 1.58
37 | N#Cc1nccnc1C#N | 0.38
38 | CN(C)c1cncc(Cl)n1 | 1.95
39 | CCOc1cncc(C(N)=O)n1 | 0.61
40 | CC(=O)Nc1cnc(Cl)cn1 | 0.56
41 | Cc1cnc(C(N)=O)cn1 | -0.25
42 | CSc1nccnc1C | 1.81
43 | Fc1cncc(F)n1 | 0.74
44 | COc1cncc(NC(C)=O)n1 | 0.82
45 | CCOc1cnc(Cl)cn1 | 1.99
46 | COc1cncc(C)n1 | 1.29
47 | CCOc1nccnc1C | 1.82
48 | CN(C)c1cncc(C(N)=O)n1 | 0.38
49 | Cc1cncc(C#N)n1 | 0.44
50 | COc1cnc(OC)cn1 | 1.14

Row | SMILES | logP
51 | COC(=O)c1cncc(OC)n1 | 0.69
52 | CCc1ncc(C)nc1CC | 1.95
53 | Cc1nc(C)c(C)nc1C | 1.28
54 | Nc1cnc(Cl)cn1 | 0.67
55 | Cc1nccnc1OC(C)C | 2.24
56 | CCOC(=O)c1cncc(OC)n1 | 1.2
57 | COc1cncc(N)n1 | 0.73
58 | CCOC(=O)c1cncc(N(C)C)n1 | 1.24
59 | Cc1cncc(N)n1 | 0.35
60 | N#Cc1ncc(Cl)nc1C#N | 0.95
61 | CCCCc1nccnc1C | 2.1
62 | Cc1cncc(C(N)=O)n1 | -0.13
63 | COC(=O)c1cncc(N(C)C)n1 | 0.9
64 | CCc1nccnc1C | 1.07
65 | COc1cncc(C(N)=O)n1 | 0.13
66 | Cc1cncc(Cl)n1 | 1.03
67 | COc1cnc(N(C)C)cn1 | 1.65
68 | CN(C)c1cncc(C#N)n1 | 1.12
69 | Clc1cncc(Cl)n1 | 1.53
70 | CCOC(=O)c1cncc(C)n1 | 0.51
71 | CCOC(=O)c1nccnc1C(=O)OCC | 0.65
72 | Cc1cncc(N(C)C)n1 | 1.57
73 | Cc1nccnc1C | 0.54
74 | COc1cnc(Cl)cn1 | 1.52
